Patent publication US12054498B2, “Heteroaromatic macrocyclic ether chemotherapeutic agents” (Nuvalent, Inc., priority 2020, dated 2024)

Assays:
ALK-wt = target: T1, ALK-wt (Homo sapiens, UniProt Q9UM73); assay: Biochemical kinase assay, ALK-wt kinase domain; conditions: apparent inhibitory constant, Morrison equation; ATP 2 mM in substrate solution; read-out: ALK-wt Ki^app
T1 construct: purchased Carna 08-518
How it was run: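 Apparent Ki values come from fitting initial reaction rates against inhibitor concentration to the Morrison equation. Rates were taken from the linear phase of fluorogenic substrate phosphorylation (AQT0101 for ALK and ROS1, AQT0104 for TRKA; 26 μM in substrate solution with 2 mM ATP), monitored at 485 nm over 120 min at 30° C.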

ALK L1196M/G1202R = target: T2, ALK L1196M/G1202R (Homo sapiens, UniProt Q9UM73, G1202R/L1196M); assay: Biochemical kinase assay, ALK L1196M/G1202R kinase domain; conditions: apparent inhibitory constant, Morrison equation; ATP 2 mM in substrate solution; read-out: ALK-L1196M-G1202R Ki^app
T2 construct: purchased SignalChem A19-12NG
How it was run: (§1)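 Kinase domains (in kinase solution: ROS1-G2032R 0.5 nM, ROS1-wt 0.6 nM, TRKA 1 nM, ALK L1196M/G1202R 3 nM) were mixed with compound and a substrate solution of 2 mM ATP plus 26 μM fluorogenic AQT0101 (ALK, ROS1) or AQT0104 (TRKA) in HEPES pH 7.5/MgCl2. Fluorescence was followed for 120 min at 30° C; Ki^app was obtained by Morrison fit of initial rates.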

ROS1-wt = target: T3, ROS1-wt (Homo sapiens, UniProt P08922); assay: Biochemical kinase assay, ROS1-wt kinase domain; conditions: apparent inhibitory constant, Morrison equation; ATP 2 mM in substrate solution; read-out: ROS1-wt Ki^app
T3 construct: purchased Carna 08-163
How it was run: (§2)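 Compounds, as 100-fold DMSO stocks, were dispensed first, then substrate mix was added (ATP 2 mM, AQT0101 26 μM, in 50 mM HEPES pH 7.5/10 mM MgCl2). Reactions ran at 30 °C with fluorescence logged every 2 min over 120 min. Apparent inhibition constants came from fitting rates to Morrison's tight-binding equation.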

ROS1-G2032R = target: T4, ROS1-G2032R (Homo sapiens, UniProt P08922, G2032R); assay: Biochemical kinase assay, ROS1-G2032R kinase domain; conditions: apparent inhibitory constant, Morrison equation; ATP 2 mM in substrate solution; read-out: ROS1-G2032R Ki^app
T4 construct: purchased SignalChem R14-12BG
How it was run: as §2

TRKA-wt = target: T5, TRKA-wt (Homo sapiens, UniProt P04629); assay: Biochemical kinase assay, TRKA-wt kinase domain; conditions: apparent inhibitory constant, Morrison equation; ATP 2 mM in substrate solution; read-out: TRKA-wt Ki^app
T5 construct: or TRKA-wt (1 nM, BPS Bio, 40280) kinase domains in buffer; purchased BPS Bio 40280
How it was run: as §1

[1] = target: T6, Ba/F3 cells CD74-ROS1 wild-type (wt) (Homo sapiens, UniProt P08922); assay: Ba/F3 cell proliferation assay, CD74-ROS1 wild-type; format: cell-based; conditions: 72 hours, CellTiter-Glo
T6 construct: fusion of the C-terminus of ROS1 with the N-terminus of various partner proteins; host or cells: Ba/F3 (RIKEN), retroviral pMSCV-puro; the other entry of the earlier key: CD74 (P04233, HLA class II histocompatibility antigen gamma chain)
How it was run: (§3)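 Cells seeded 1 day, then treated with 3-fold compound dilutions for 72 h; viability by CellTiter-Glo luminescence. IC50 from percent inhibition by four-parameter logistic fit.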

[2] = target: T7, Ba/F3 cells CD74-ROS1 G2032R (Homo sapiens, UniProt P08922, G2032R); assay: Ba/F3 cell proliferation assay, CD74-ROS1 G2032R; format: cell-based; conditions: 72 hours, CellTiter-Glo
T7 construct: fusion of the C-terminus of ROS1 with the N-terminus of various partner proteins; host or cells: Ba/F3 (RIKEN), retroviral pMSCV-puro; the other entry of the earlier key: CD74 (P04233, HLA class II histocompatibility antigen gamma chain)
How it was run: as §3

[3] = target: T8, Ba/F3 cells EML4-ALK wt (variant 1) (Homo sapiens, UniProt Q9UM73); assay: Ba/F3 cell proliferation assay, EML4-ALK wt (variant 1); format: cell-based; conditions: 72 hours, CellTiter-Glo
T8 construct: echinoderm microtubule-associated protein-like 4 (EML4) gene and the ALK tyrosine kinase domain; host or cells: Ba/F3 (RIKEN), retroviral pMSCV-puro; the other entry of the earlier key: EML4 (Q9HC35, Echinoderm microtubule-associated protein-like 4)
How it was run: (§4)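 Luminescence from CellTiter-Glo after 72 hours of compound exposure measured viability of IL-3-independent Ba/F3 cells carrying the retrovirally introduced fusion. Cells were plated at 1,000 per well one day before 3-fold serial dilutions were added. IC50 values came from four-parameter logistic regression.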

[4] = target: T9, Ba/F3 cells EML4-ALK L1196M/G1202R (variant 1) (Homo sapiens, UniProt Q9UM73, G1202R/L1196M); assay: Ba/F3 cell proliferation assay, EML4-ALK L1196M/G1202R (variant 1); format: cell-based; conditions: 72 hours, CellTiter-Glo
T9 construct: echinoderm microtubule-associated protein-like 4 (EML4) gene and the ALK tyrosine kinase domain; host or cells: Ba/F3 (RIKEN), retroviral pMSCV-puro; the other entry of the earlier key: EML4 (Q9HC35, Echinoderm microtubule-associated protein-like 4)
How it was run: as §4

Ba/F3 cells TPM3-TRKA = target: T10, Ba/F3 cells TPM3-TRKA (Homo sapiens, UniProt P04629); assay: Ba/F3 cell proliferation assay, TPM3-TRKA; format: cell-based; conditions: 72 hours, CellTiter-Glo, read-out: TPM3-NTRK1-wt IC50
T10 construct: host or cells: Ba/F3 (RIKEN), retroviral pMSCV-puro; the other entry of the earlier key: TPM3 (P06753, Tropomyosin alpha-3 chain)
How it was run: as §4

[5] = test system: TPM3-NTRK1-wt IC50 / primary target IC50 (e.g. CD74-ROS1-wt); assay: TRKA selectivity in Ba/F3 cells (TRKA potency divided by primary target potency); format: cell-based; conditions: for TPM3-NTRK1-wt/CD74-ROS1-G2032R selectivity ratio: TRKA potency / CD74-ROS1-G2032R potency; for TPM3-NTRK1-wt/CD74-ROS1-wt selectivity ratio: TRKA potency / CD74-ROS1-wt potency; for TPM3-NTRK1-wt/EML4-ALK-L1196M-G1202R selectivity ratio: TRKA potency / EML4-ALK-L1196M-G1202R potency; for TPM3-NTRK1-wt/EML4-ALK-wt selectivity ratio: TRKA potency / EML4-ALK-wt potency
Method: TRKA selectivity was calculated by dividing a compound's TRKA potency by its primary target potency (e.g. TPM3-NTRK1-wt IC50/CD74-ROS1-wt IC50). Compound selectivity can be interpreted by binning ratio values: bin A for very high selectivity, ratio >30-fold; bin B for high selectivity, ratio >10-fold; bin C for moderate selectivity, ratio ≥1; and bin D for low selectivity, ratio <1. […] (nd=not determined).

T4 sequence (P08922 1945-2222 G2032R limits assumed): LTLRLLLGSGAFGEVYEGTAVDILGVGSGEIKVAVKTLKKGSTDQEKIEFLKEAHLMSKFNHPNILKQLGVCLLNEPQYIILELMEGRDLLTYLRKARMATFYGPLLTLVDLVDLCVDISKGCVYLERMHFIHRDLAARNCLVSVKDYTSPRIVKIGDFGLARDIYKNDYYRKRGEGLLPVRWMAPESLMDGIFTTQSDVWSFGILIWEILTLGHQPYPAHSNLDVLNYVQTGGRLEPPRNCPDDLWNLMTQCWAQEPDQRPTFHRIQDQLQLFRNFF
T5 sequence (P04629 510-781 limits assumed): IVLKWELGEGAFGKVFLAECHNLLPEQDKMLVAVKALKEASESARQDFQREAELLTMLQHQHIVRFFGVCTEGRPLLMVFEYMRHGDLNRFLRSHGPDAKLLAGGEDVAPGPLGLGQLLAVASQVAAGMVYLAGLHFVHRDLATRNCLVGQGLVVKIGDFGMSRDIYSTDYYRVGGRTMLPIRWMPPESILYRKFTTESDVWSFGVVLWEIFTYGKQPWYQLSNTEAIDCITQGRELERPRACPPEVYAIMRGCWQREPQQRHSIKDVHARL
T2 sequence (Q9UM73 1116-1392 L1196M/G1202R limits assumed): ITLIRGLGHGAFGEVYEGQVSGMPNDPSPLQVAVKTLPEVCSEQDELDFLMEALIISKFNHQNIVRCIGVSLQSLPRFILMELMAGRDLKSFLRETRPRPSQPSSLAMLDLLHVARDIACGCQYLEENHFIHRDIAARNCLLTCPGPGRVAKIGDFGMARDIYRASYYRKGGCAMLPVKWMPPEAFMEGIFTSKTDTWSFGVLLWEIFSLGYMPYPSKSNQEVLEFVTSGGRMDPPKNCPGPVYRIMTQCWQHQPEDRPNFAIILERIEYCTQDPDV
T10 sequence (P04629 510-796 limits assumed): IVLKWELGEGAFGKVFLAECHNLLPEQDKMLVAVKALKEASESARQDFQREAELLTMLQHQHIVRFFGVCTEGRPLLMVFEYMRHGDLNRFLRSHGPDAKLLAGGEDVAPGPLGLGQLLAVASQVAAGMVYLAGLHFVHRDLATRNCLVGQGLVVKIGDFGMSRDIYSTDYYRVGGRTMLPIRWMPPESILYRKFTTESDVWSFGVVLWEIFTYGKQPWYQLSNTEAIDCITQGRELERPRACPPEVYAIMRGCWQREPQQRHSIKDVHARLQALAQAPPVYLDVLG
T3 sequence (P08922 1945-2222 limits assumed): as the sequence (P08922 1945-2222 G2032R limits assumed) above, with R88G counted along it
T6 sequence (P08922 1883-2347 limits assumed): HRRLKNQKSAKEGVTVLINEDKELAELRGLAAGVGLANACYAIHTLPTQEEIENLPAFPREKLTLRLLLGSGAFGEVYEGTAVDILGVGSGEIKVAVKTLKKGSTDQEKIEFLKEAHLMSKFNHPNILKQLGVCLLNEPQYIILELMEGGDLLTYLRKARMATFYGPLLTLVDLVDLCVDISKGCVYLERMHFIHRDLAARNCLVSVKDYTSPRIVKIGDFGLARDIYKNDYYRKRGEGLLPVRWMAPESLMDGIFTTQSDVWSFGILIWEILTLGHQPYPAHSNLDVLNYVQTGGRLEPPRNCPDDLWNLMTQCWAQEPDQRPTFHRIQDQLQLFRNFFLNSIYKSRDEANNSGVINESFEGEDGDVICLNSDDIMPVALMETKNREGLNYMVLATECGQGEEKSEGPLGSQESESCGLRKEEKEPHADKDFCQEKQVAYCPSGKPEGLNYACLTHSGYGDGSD
T7 sequence (P08922 1883-2347 G2032R limits assumed): as the sequence (P08922 1883-2347 limits assumed) above, with G150R counted along it
T9 sequence (Q9UM73 with tags, fused parts or gaps L1196M/G1202R): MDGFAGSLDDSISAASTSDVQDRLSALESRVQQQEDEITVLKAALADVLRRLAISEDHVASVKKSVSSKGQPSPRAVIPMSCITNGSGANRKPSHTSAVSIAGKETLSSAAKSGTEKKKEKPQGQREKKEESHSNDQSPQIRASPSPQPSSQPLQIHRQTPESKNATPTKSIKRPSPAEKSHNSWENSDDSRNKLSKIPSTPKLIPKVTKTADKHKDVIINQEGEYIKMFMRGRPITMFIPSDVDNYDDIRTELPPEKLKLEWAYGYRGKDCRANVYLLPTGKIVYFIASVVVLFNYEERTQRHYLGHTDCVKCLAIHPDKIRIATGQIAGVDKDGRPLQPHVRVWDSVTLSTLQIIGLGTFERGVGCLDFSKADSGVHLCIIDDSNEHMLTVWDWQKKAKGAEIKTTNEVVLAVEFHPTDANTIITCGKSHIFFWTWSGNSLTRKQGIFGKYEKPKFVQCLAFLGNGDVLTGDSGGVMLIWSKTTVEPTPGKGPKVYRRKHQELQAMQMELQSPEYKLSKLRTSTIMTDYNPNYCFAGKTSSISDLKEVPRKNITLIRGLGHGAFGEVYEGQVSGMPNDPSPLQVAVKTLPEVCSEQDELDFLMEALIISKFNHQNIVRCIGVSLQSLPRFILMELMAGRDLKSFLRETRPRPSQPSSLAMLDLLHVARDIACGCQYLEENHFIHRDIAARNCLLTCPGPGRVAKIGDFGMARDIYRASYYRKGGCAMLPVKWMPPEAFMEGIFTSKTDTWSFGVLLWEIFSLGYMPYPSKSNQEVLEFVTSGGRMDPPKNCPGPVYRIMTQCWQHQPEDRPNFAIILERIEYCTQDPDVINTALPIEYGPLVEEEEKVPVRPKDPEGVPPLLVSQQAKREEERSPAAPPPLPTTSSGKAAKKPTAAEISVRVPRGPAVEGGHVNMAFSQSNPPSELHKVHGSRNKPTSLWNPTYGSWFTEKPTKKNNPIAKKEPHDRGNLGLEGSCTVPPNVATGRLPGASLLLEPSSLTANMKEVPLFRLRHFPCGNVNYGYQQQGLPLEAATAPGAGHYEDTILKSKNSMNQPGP
T8 sequence (Q9UM73 with tags, fused parts or gaps): as the sequence (Q9UM73 with tags, fused parts or gaps L1196M/G1202R) above, with M635L, R641G counted along it
T1 sequence (Q9UM73 1116-1392 limits assumed): as the sequence (Q9UM73 1116-1392 L1196M/G1202R limits assumed) above, with M81L, R87G counted along it

Ki (ALK-wt) [nM]	Ki (ALK L1196M/G1202R) [nM]	Ki (ROS1-wt) [nM]	Ki (ROS1-G2032R) [nM]	Ki (TRKA-wt) [nM]	IC50 [1] [nM]	IC50 [2] [nM]	IC50 [3] [nM]	IC50 [4] [nM]	IC50 (Ba/F3 cells TPM3-TRKA) [nM]	Structure (SMILES)	TPM3-NTRK1-wt/CD74-ROS1-G2032R selectivity ratio [5]	TPM3-NTRK1-wt/CD74-ROS1-wt selectivity ratio [5]	TPM3-NTRK1-wt/EML4-ALK-L1196M-G1202R selectivity ratio [5]	TPM3-NTRK1-wt/EML4-ALK-wt selectivity ratio [5]
< 50	< 50	< 50	< 50	> 500	0.1 to 50	0.1 to 50	0.1 to 50	0.1 to 50	50 to 500	C[C@H]1Oc2cc(cnc2N)-c2c(CC3CC3)noc2Cc2nn(C)nc2-c2ccc(F)cc21 [Example 63, (19R)-3-(cyclopropylmethyl)-16-fluoro-10,19-dimethyl-5,20-dioxa-4,9,1 0,11,23-pentaazapentacyclo [19.3.1.0^2,^6.0^8,^12.0^13,^18]pentacosa-1(24),2(6),3,8,11,13,15,17,21(25),22-decaen-22-amine]	A (bin A for very high selectivity, ratio >30-fold)	A (bin A for very high selectivity, ratio >30-fold)	B (bin B for high selectivity, ratio >10-fold)	A (bin A for very high selectivity, ratio >30-fold)
< 50	< 50	< 50	50 to 500	> 500	0.1 to 50	0.1 to 50	50 to 500	50 to 500	> 500	Cc1nn(CC2CC2)c2c1Cc1nn(C)nc1-c1ccc(F)cc1COc1cc-2cnc1N [Example 71, 3-(cyclopropylmethyl)-16-fluoro-5,10-dimethyl-20-oxa-3,4,9,10,11,23-hexaazapentacyclo[19.3.1.0^2,^6.0^8,^12.0^13,^18]pentacosa-1(24),2(6),4,8,11,13,15,17,21(25),22-decaen-22-amine]	A (bin A for very high selectivity, ratio >30-fold)	A (bin A for very high selectivity, ratio >30-fold)	B (bin B for high selectivity, ratio >10-fold)	A (bin A for very high selectivity, ratio >30-fold)

Second part, the compound before the results:

Structure (SMILES)	Ki (ALK-wt) [nM]	Ki (ALK L1196M/G1202R) [nM]	Ki (ROS1-wt) [nM]	Ki (ROS1-G2032R) [nM]	Ki (TRKA-wt) [nM]	IC50 [1] [nM]	IC50 [2] [nM]	IC50 [3] [nM]	IC50 [4] [nM]	IC50 (Ba/F3 cells TPM3-TRKA) [nM]	TPM3-NTRK1-wt/CD74-ROS1-G2032R selectivity ratio [5]	TPM3-NTRK1-wt/CD74-ROS1-wt selectivity ratio [5]	TPM3-NTRK1-wt/EML4-ALK-L1196M-G1202R selectivity ratio [5]	TPM3-NTRK1-wt/EML4-ALK-wt selectivity ratio [5]
C[C@H]1Oc2cc(cnc2N)-c2c(cnn2C2CCC2)Cn2ncnc2-c2ccc(F)cc21 [Example 39, (19R)-3-cyclobutyl-16-fluoro-19-methyl-20-oxa-3,4,8,9,11,23-hexaazapentacyclo[19.3.1.0^2,^6.0^8,^12.0^13,^18]pentacosa-1(24),2(6),4,9,11,13,15,17,21(25),22-decaen-22-amine]	< 50	< 50	< 50	< 50	> 500	0.1 to 50	0.1 to 50	0.1 to 50	50 to 500	> 500	A (bin A for very high selectivity, ratio >30-fold)	A (bin A for very high selectivity, ratio >30-fold)	B (bin B for high selectivity, ratio >10-fold)	A (bin A for very high selectivity, ratio >30-fold)
CCn1ncc2c1-c1cnc(N)c(c1)O[C@H](C)c1cc(F)ccc1-c1nsnc1C2 [Example 62, (19R)-3-ethyl-16-fluoro-19-methyl-20-oxa-10-thia-3,4,9,11,23-pentaazapentacyclo[19.3.1.0^2,^6.0^8,^12.0^13,^18]pentacosa-1(24),2(6),4,8,11,13,15,17,21(25),22-decaen-22-amine]	< 50	< 50	< 50	< 50	50 to 500	0.1 to 50	0.1 to 50	0.1 to 50	0.1 to 50	50 to 500	A (bin A for very high selectivity, ratio >30-fold)	A (bin A for very high selectivity, ratio >30-fold)	C (bin C for moderate selectivity, ratio ≥1)	A (bin A for very high selectivity, ratio >30-fold)
CCn1nc2c(n1)-c1ccc(F)cc1[C@@H](C)Oc1cc(cnc1N)-c1c(cnn1CC)C2 [Example 88, (19R)-3,10-diethyl-16-fluoro-19-methyl-20-oxa-3,4,9,10,11,23-hexaazapentacyclo(19.3.1.0^2,^6.0^8,^12.0^13,^18]pentacosa-1(24),2(6),4,8,11,13,15,17,21(25),22-decaen-22-amine]	< 50	< 50	< 50	< 50	50 to 500	0.1 to 50	0.1 to 50	0.1 to 50	50 to 500	50 to 500	A (bin A for very high selectivity, ratio >30-fold)	A (bin A for very high selectivity, ratio >30-fold)	C (bin C for moderate selectivity, ratio ≥1)	B (bin B for high selectivity, ratio >10-fold)
CCn1nc(C)c2c1-c1cnc(N)c(c1)O[C@H](C)c1cc(F)ccc1-c1ncnn1C2 [Example 56, (19R)-3-ethyl-16-fluoro-5,19-dimethyl-20-oxa-3,4,8,9,11,23-hexaazapentacyclo[19.3.1.0^2,^6.0^8,^12.0^13,^18]pentacosa-1(24),2(6),4,9,11,13,15,17,21(25),22-decaen-22-amine]	< 50	< 50	< 50	< 50	50 to 500	0.1 to 50	0.1 to 50	0.1 to 50	50 to 500	50 to 500	A (bin A for very high selectivity, ratio >30-fold)	A (bin A for very high selectivity, ratio >30-fold)	C (bin C for moderate selectivity, ratio ≥1)	B (bin B for high selectivity, ratio >10-fold)
